{
  "source": "patent US20160067272A1",
  "about": "“METHODS FOR TREATING IMMUNE DISEASES” (priority 2013, published 2016)",
  "key": {"naïve CD4+ T cells": {"tested_on": "naïve CD4+ T cells", "assay": "Naïve CD4+ T cell differentiation under Th2 polarizing conditions", "assay_type": "cell-based, mouse", "procedure": "Next, the effects of NAD^+ on activated CD4+ T cells were tested in Th2 polarizing conditions. […] In the absence of NAD^−, CD4^+ T cells cultured in Th2 cytokine environment barely produced IL-17A cytokine while in the presence of increasing concentrations of NAD^+, cultured cells produced large amounts (>2000 pg/ml) in a dose dependent manner (FIG. 2A). […] In contrast, production of the pro-inflammatory cytokine TNF-α was inhibited in the presence of NAD^− (FIG. 7D). […] Thus, these findings indicate that NAD^+ drives the switch from classical Th2/IL-10^+ toward Th2/IL-17A^+ producing cells.\nSingle-cell leukocyte suspensions were obtained from spleens from 8-10 week old DBA mice and CD4^− T cells were isolated by negative selection using a CD4^+ T cell isolation kit (MILTENYI BIOTEC, Bergisch Gladbach, Germany). Cells were further sorted using α-CD4-PE (EBIOSCIENCE, San Diego, Calif.) and purities of CD4^+ T cells after isolation were >98%.\nAll recombinant cytokines and antibodies were purchased from EBIOSCIENCE except recombinant TGF-β cytokine (R&D SYSTEMS, Minneapolis, Minn.). After 96 hrs of culture supernatants and cells were collected and analyzed by ELISA and flow cytometry, respectively.\nFluorescently labeled anti-mouse α-CD4 (GK1.5), α-CD25 (PC61), α-IFN-γ (XMG1.2) and unlabeled α-CD16/CD32 (2.4G2) antibodies were obtained from BD BIOSCIENCES (San Jose, Calif.). Fluorescently labeled anti-mouse α-IL-4 (FJK-16s), α-IL-10 (JES5-16E3), α-IL-17A (eBio17B7), and anti-TGFβ (TW7-16B4) were obtained from eBIOSCIENCE (San Diego, Calif.). Intracellular staining for IL-4, IL-10, IL-17A, IFNγ and TGFβ was performed according to manufacturers' protocols. Splenocytes were re-stimulated in complete media (RPMI media containing 10% FCS, 1% L-Glutamine, 1% Penicillin/Streptomycin; all Bio Whittaker, Walkersville, Md.) for 4 hours at 37° C. with ionomycin, phorbol 12-myristate 13-acetate and Brefelding A (EBIOSCIENCE). Cells were fixed and permeabilized using CYTOFIX/CYTOPERM solution (BD BIOSCIENCES). Flow cytometry measurements of single-cell suspensions were performed on a FACSCalibur using standard procedures and data were analyzed using FLOWJO software (TREE STAR, Ashland, Oreg.)."}, "Human nTregs": {"tested_on": "Human nTregs", "assay": "Human nTreg conversion into IL-17A producing cells", "assay_type": "cell-based", "procedure": "Several discrepancies have been reported for mechanisms promoting Th17 cell development in mice and human^15. […] In addition, it has been shown that IL-2 inhibits Th17 development^16. In contrast, human Th17 differentiation requires IL-1β and IL-6 and can be inhibited by TFG-β and IL-2^34. […] Therefore, it was tested whether NAD^+ was a universal molecule that was able to enhance nTreg conversion into Th17 cells in human and mice as well. Human nTregs were isolated and cultured in presence of increasing NAD^− concentrations and IL-2. […] Of note, human nTregs conversion into IL-17A^+ producing cells remained CD4^+CD25^+.\nFor isolation of human Treg cells, peripheral blood mononuclear cells were obtained from young healthy volunteers using density gradient centrifugation with Ficoll-Paque (STEMCELL TECHNOLOGIES, Vancouver, BC, Canada). Non-CD4^+ T cells were then depleted using biotin-conjugated monoclonal anti-human antibodies against CD8, CD14, CD15, CD16, CD19, CD36, CD56, CD123, TCRγ/δ, CD235a (Glycophorin A) and anti-biotin magnetic beads (Miltenyi Biotec). […]\nFor cultivation of human Treg cells, recombinant human IL-2 (EBIOSCIENCE) and superparamagnetic beads coupled with human α-CD3 and α-CD28 (LIFE TECHNOLOGIES, Carlsbad, Calif.) were used. Cells were cultured during 10 days and analyzed by flow cytometry."}, "[1]": {"tested_on": "Fully MHC-mismatched tail skin allografts in mice", "assay": "Skin transplantation model", "assay_type": "in vivo, mouse", "excerpt": "More importantly, in transplantation nTregs promote allograft survival while Th17 cells enhance allograft rejection^44-45. Thus, to study, in vivo, the impact of NAD^+ on nTregs and Th17 cells a transplant mouse model was used. Fully MHC-mismatched C57BL/6 (H2^b) tail skin allografts were transplanted onto DBA/2 (H2^d) mice that received daily intraperitoneally a solution containing NAD^+ or a placebo solution (PBS) and graft survival was monitored. […] Therefore, NAD^+ treatment was expected to promote allograft rejection. […] Recipient mice were evaluated by day 8 and the frequency of nTregs CD4^+CD25^+Foxp3^+ and CD4^+IL17-A^+ cells was assessed (FIG. 14B). […] Next, mechanisms by which NAD^+ could promote nTreg conversion into Th17 cells and allograft survival at the same time, e.g., two paradoxes, were assessed. Strikingly, when compared to the control group, more than 60% of CD4^+ T cells of NAD^+ treated mice were IL-10^+ producing cells (FIG. 14B). It is known that IL-10 is a robust immunosuppressive cytokine^46. Therefore, it was tested whether the allograft survival observed in recipient mice treated with NAD^| was the results of a systemic increase of IL-10 production. Thus, WT and IL-10^−/− mice (on a C57BL6/ background) received a BDA skin transplant and were treated with NAD^|.\nFull-thickness tail skin grafts (˜1 cm^2) were procured from C57BL/6 mice and engrafted onto the dorsolateral thoracic wall of DBA/2 recipient mice using interrupted 5-0 Vicryl sutures. NAD^+ (100 μl of a solution containing 10 mg in PBS), or PBS (100 μl) were injected intraperitoneally and grafts were covered with gauze and adhesive bandage for 5 days. Graft survival was then monitored daily and rejection was defined as graft necrosis of 100%. Two investigators blinded for the particular experimental groups assessed graft survival independently. Eight days after transplantation, single-cell leukocyte suspensions were obtained from spleens procured from recipient mice to perform re-stimulation (with PMA and Ionomycin for 2hrs) and staining for surface and intracellular antigens as described above."}, "[2]": {"settings": "recipient spleen, day 8, NAD+ vs placebo"}},
  "data": [
    {"smiles": "NC(=O)c1ccc[n+]([C@@H]2O[C@H](COP(=O)([O-])OP(=O)(O)OC[C@H]3O[C@@H](n4cnc5c(N)ncnc54)[C@H](O)[C@@H]3O)[C@@H](O)[C@H]2O)c1", "note": "[NAD+, nicotinamide adenine dinucleotide]", "values": [
      {"measurement": "IL-4 cytokine production", "setting": "naïve CD4+ T cells; 96 hrs, ELISA", "result": "did not affect"},
      {"measurement": "IL-10 cytokine production", "setting": "naïve CD4+ T cells; 96 hrs, ELISA", "result": "reduced"},
      {"measurement": "IL-13 cytokine production", "setting": "naïve CD4+ T cells; ELISA", "result": "did not affect"},
      {"measurement": "TNF-α production", "setting": "naïve CD4+ T cells; ELISA", "result": "inhibited"},
      {"measurement": "CD4+IL10+ cell frequency", "setting": "naïve CD4+ T cells; flow cytometry", "result": "decreased number"},
      {"measurement": "CD4+IL17A+ cells", "setting": "naïve CD4+ T cells; flow cytometry", "result": "increased number"},
      {"measurement": "CD4+IL-4+ cell frequency", "setting": "naïve CD4+ T cells; flow cytometry", "result": "no changes"},
      {"measurement": "IL-17A secretion", "setting": "naïve CD4+ T cells; increasing NAD+, dose dependent, ELISA", "result": "> 2000", "unit": "pg/mL"},
      {"measurement": "IL-17A cytokine production", "setting": "Human nTregs; increasing NAD+ and IL-2, ELISA", "result": "enhance"},
      {"measurement": "number of IL-17A+ cells", "setting": "Human nTregs; increasing NAD+ and IL-2, flow cytometry", "result": "increased"},
      {"measurement": "visual sign of rejection", "setting": "[1]; 13 days after transplantation, daily NAD+", "result": "no visual sign of rejection"},
      {"measurement": "allografts survived more than 18 days", "setting": "[1]; C57BL/6 skin onto DBA/2 mice, daily i.p. NAD+", "result": 66, "unit": "%"},
      {"measurement": "skin allograft survival", "setting": "[1]; C57BL/6 skin onto DBA/2 mice, daily i.p. NAD+ vs control group", "result": "dramatic allograft survival"},
      {"measurement": "skin allograft survival in IL-10−/− mice", "setting": "[1]; DBA skin onto IL-10−/− mice (C57BL/6 background), NAD+ treatment", "result": "abolished the allograft survival"},
      {"measurement": "frequencies of CD4+IL-17A+ cells", "setting": "[1]; [2]", "result": "increased frequencies"},
      {"measurement": "frequency of CD4+CD25+Foxp3+ nTregs", "setting": "[1]; [2]", "result": "reduced frequency"}
    ]}
  ]
}
